The source of these data is patent US20240228489A1, “POSITIVE ALLOSTERIC MODULATORS OF THE MUSCARINIC ACETYLCHOLINE RECEPTOR M1” (Vanderbilt University, priority 2021, published 2024).

SMILES strings stand for the structures. Where only a bound is given, the exact number is not on record here.

The target of experiment [1] is T1, human mAChR M1 (Homo sapiens, UniProt P11229).
T1 sequence (P11229 1-460): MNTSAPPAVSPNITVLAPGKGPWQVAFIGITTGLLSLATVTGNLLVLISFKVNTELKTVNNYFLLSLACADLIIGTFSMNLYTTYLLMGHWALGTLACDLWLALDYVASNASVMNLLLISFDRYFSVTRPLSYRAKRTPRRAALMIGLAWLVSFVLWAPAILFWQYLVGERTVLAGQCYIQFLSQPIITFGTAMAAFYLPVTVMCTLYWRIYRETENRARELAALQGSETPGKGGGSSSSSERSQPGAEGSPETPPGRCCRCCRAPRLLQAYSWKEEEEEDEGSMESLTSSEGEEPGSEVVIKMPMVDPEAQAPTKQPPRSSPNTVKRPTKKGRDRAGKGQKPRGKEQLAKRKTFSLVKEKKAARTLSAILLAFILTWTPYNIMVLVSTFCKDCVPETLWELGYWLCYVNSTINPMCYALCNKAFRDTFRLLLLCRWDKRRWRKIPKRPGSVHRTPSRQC
The experiment in a line: mAChR M1 cell-based functional assay (calcium mobilization), PAM mode: increase in the EC20 acetylcholine response. In a few lines: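 CHO-K1 cells stably expressing hM1, Fluo-4 loaded, read by FDSS calcium flux at 1 Hz. Compound (11-point 1:3 CRC) added at 4 s, EC20 acetylcholine at 144 s, EC80 at 230 s. PAM activity taken as concentration-dependent increase in EC20 ACh response, fitted by four-parameter logistic for EC50/Emax.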
For orientation: Calcium assays in cells follow changes in intracellular calcium, usually with a dye or a luminescent sensor.

Experiment [2] concerns the target T1, human mAChR M1. Kind of experiment: mAChR M1 cell-based functional assay (calcium mobilization), agonist mode: compound alone, Emax relative to acetylcholine maximum. Conditions: for Agonist Activity Human M1 EC50 / EC50: human mAChR M1; for Emax: relative to the maximum for acetylcholine; call rule not given here. The essentials: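 CHO-K1 cells stably expressing hM1 were loaded with Fluo-4 AM, and calcium flux was read as fluorescence ratio. Compound was added alone from an 11-point 1:3 curve, and the agonist response was fitted with a four-parameter logistic. Emax is expressed relative to the acetylcholine maximum.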

One may read the EC50 as the midpoint of the concentration-response curve. In general, Emax refers to the size of the effect at its maximum, as opposed to the concentration needed.

In the case of `[2H]C1([2H])c2ncccc2C(=O)N1Cc1c(F)cc(-c2ccnc3nn(C([2H])([2H])[2H])cc23)cc1F` [Compound 188, 6-(2,6-difluoro-4-(2-(methyl-d3)-2H-pyrazolo[3,4-b]pyridin-4-yl)benzyl)-6,7-dihydro-5H-pyrrolo[3,4-b]pyridin-5-one-7,7-d2], in experiment [1], the EC50 turned out to be 2710 nM and the Emax was 71%. Further, in experiment [2], the “Agonist Activity Human M1 EC50” value is “Inactive” and the Emax is 9%.

Take `[2H]C1([2H])c2ncccc2C(=O)N1Cc1c(F)cc(-c2cc(Cl)cc3nn(C([2H])([2H])[2H])cc23)cc1F` [Compound 85, 6-(4-(6-chloro-2-(methyl-d3)-2H-indazol-4-yl)-2,6-difluorobenzyl)-6,7-dihydro-5H-pyrrolo[3,4-b]pyridin-5-one-7,7-d2]: in experiment [1], the EC50 was 654 nM and the Emax is 51%. In addition, in experiment [2], the “Agonist Activity Human M1 EC50” value is recorded as “Inactive” and the Emax is 2%.

In the case of `[2H]C1([2H])c2ncccc2C(=O)N1Cc1c(F)cc(-c2cc(Cl)cc3c2cnn3C([2H])([2H])[2H])cc1F` [Compound 246, 6-(4-(6-chloro-1-(methyl-d3)-1H-indazol-4-yl)-2,6-difluorobenzyl)-6,7-dihydro-5H-pyrrolo[3,4-b]pyridin-5-one-7,7-d2], in experiment [1], the concentration for a half-maximal effect (EC50) was above 10000 nM and the Emax stood at 25%. In experiment [2], the “Agonist Activity Human M1 EC50” value is recorded as “Inactive” and the Emax was 2%.

`[2H]C1([2H])c2ncccc2C(=O)N1Cc1c(F)cc(-c2cc(F)c(Cl)c3nn(C([2H])([2H])[2H])cc23)cc1F` [Compound 248, 6-(4-(7-chloro-6-fluoro-2-(methyl-d3)-2H-indazol-4-yl)-2,6-difluorobenzyl)-6,7-dihydro-5H-pyrrolo[3,4-b]pyridin-5-one-7,7-d2]: in experiment [1], the EC50 was above 10000 nM and the Emax was determined as 34%. Moreover, in experiment [2], the “Agonist Activity Human M1 EC50” value was “Inactive” and the Emax was determined as 2%.

In the case of `[2H]C1([2H])c2ncccc2C(=O)N1Cc1c(F)cc(-c2cccc3nn(C)cc23)cc1C1CCCC1` [Compound 223, 6-(2-cyclopentyl-6-fluoro-4-(2-methyl-2H-indazol-4-yl)benzyl)-6,7-dihydro-5H-pyrrolo[3,4-b]pyridin-5-one-7,7-d2], in experiment [1], the EC50 turned out to be 5240 nM and the Emax came out at 59%. In experiment [2], the “Agonist Activity Human M1 EC50” value is recorded as “Inactive” and the Emax was determined as 1%.

Turning to `[2H]C1([2H])c2ncccc2C(=O)N1Cc1c(F)cc(-c2ccnc3nn(C)cc23)cc1Cl` [Compound 165, 6-(2-chloro-6-fluoro-4-(2-methyl-2H-pyrazolo[3,4-b]pyridin-4-yl)benzyl)-6,7-dihydro-5H-pyrrolo[3,4-b]pyridin-5-one-7,7-d2], the EC50 in experiment [1] was 643 nM; in experiment [2] it was at least 10000 nM. Besides, the Emax in experiment [1] came out at 93%; in experiment [2], 16%.

Take `[2H]C1([2H])c2ncccc2C(=O)N1Cc1c(F)cc(-c2ccc(OC3CC3)c3nn(C)cc23)cc1OCC(C)C` [Compound 212, 6-(4-(7-cyclopropoxy-2-methyl-2H-indazol-4-yl)-2-fluoro-6-isobutoxybenzyl)-6,7-dihydro-5H-pyrrolo[3,4-b]pyridin-5-one-7,7-d2]: in experiment [1], the EC50 was determined as 1450 nM and the Emax amounted to 82%. In experiment [2], the “Agonist Activity Human M1 EC50” value was “Inactive” and the Emax was determined as 2%.

For the compound `[2H]C1([2H])c2ncccc2C(=O)N1Cc1c(F)cc(-c2cccc3nn(C([2H])([2H])[2H])cc23)cc1N(C)C` [Compound 230, 6-(2-(dimethylamino)-6-fluoro-4-(2-(methyl-d3)-2H-indazol-4-yl)benzyl)-6,7-dihydro-5H-pyrrolo[3,4-b]pyridin-5-one-7,7-d2], in experiment [1], the EC50 is at least 10000 nM and the Emax came out at 38%. Further, in experiment [2], the “Agonist Activity Human M1 EC50” value is “Inactive” and the Emax came to 3%.

In the case of `[2H]C1([2H])c2ncc(Br)cc2C(=O)N1Cc1c(F)cc(-c2cccc3nn(C)cc23)cc1F` [Compound 61, 3-Bromo-6-(2,6-difluoro-4-(2-methyl-2H-indazol-4-yl)benzyl)-6,7-dihydro-5H-pyrrolo[3,4-b]pyridin-5-one-7,7-d2], in experiment [1], the EC50 stood at 1360 nM and the Emax is 68%. Besides, in experiment [2], the “Agonist Activity Human M1 EC50” value is “Inactive” and the Emax was 8%.

In the case of `[2H]C1([2H])c2ncccc2C(=O)N1Cc1c(F)cc(-c2ccc(OCC3CC3)c3nn(C)cc23)cc1F` [Compound 138, 6-(4-(7-(cyclopropylmethoxy)-2-methyl-2H-indazol-4-yl)-2,6-difluorobenzyl)-6,7-dihydro-5H-pyrrolo[3,4-b]pyridin-5-one-7,7-d2], in experiment [1], the EC50 amounted to 837 nM and the Emax was determined as 75%. In addition, in experiment [2], the EC50 is at least 10000 nM and the Emax was 11%.

For the compound `[2H]C1([2H])c2ncccc2C(=O)N1Cc1c(F)cc(-c2ccc(O)c3nn(C)cc23)cc1F` [Compound 130, 6-(2,6-Difluoro-4-(7-hydroxy-2-methyl-2H-indazol-4-yl)benzyl)-6,7-dihydro-5H-pyrrolo[3,4-b]pyridin-5-one-7,7-d2], the EC50 was 123 nM in experiment [1] and 4560 nM in experiment [2]. Also, the Emax in experiment [1] was 82%; in experiment [2], 52%.

Take `[2H]C1([2H])c2ncccc2C(=O)N1Cc1c(F)cc(-c2ccc(OC3CN(S(=O)(=O)C(C)C)C3)c3nn(C)cc23)cc1F` [Compound 187, 6-(2,6-difluoro-4-(7-((1-(isopropylsulfonyl)azetidin-3-yl)oxy)-2-methyl-2H-indazol-4-yl)benzyl)-6,7-dihydro-5H-pyrrolo[3,4-b]pyridin-5-one-7,7-d2]: in experiment [1], the EC50 was found to be 473 nM and the Emax stood at 67%. Besides, in experiment [2], the “Agonist Activity Human M1 EC50” value was “Inactive” and the Emax came to 1%.

Take `[2H]C1([2H])c2ncccc2C(=O)N1Cc1c(F)cc(-c2ccc(OC(F)(F)F)c3nn(C([2H])([2H])[2H])cc23)cc1F` [Compound 104, 6-(2,6-difluoro-4-(2-(methyl-d3)-7-(trifluoromethoxy)-2H-indazol-4-yl)benzyl)-6,7-dihydro-5H-pyrrolo[3,4-b]pyridin-5-one-7,7-d2]: in experiment [1], the EC50 stood at 1170 nM and the Emax was 69%. Further, in experiment [2], the “Agonist Activity Human M1 EC50” value is “Inactive” and the Emax was found to be 2%.

Turning to `[2H]C1([2H])c2ncccc2C(=O)N1Cc1c(F)cc(-c2ccc(OC3CC3)c3nn(C)cc23)cc1Cl` [Compound 169, 6-(2-chloro-4-(7-cyclopropoxy-2-methyl-2H-indazol-4-yl)-6-fluorobenzyl)-6,7-dihydro-5H-pyrrolo[3,4-b]pyridin-5-one-7,7-d2], in experiment [1], the EC50 worked out at 630 nM and the Emax is 81%. In experiment [2], the “Agonist Activity Human M1 EC50” value is “Inactive” and the Emax turned out to be 7%.

Turning to `[2H]C1([2H])c2ncccc2C(=O)N1Cc1ccc(-c2ccc3nn(C)cc3c2)cc1` [Compound 12, 6-(4-(2-methyl-2H-indazol-5-yl)benzyl)-6,7-dihydro-5H-pyrrolo[3,4-b]pyridin-5-one-7,7-d2], in experiment [1], the EC50 is 1230 nM and the Emax was found to be 62%. In experiment [2], the “Agonist Activity Human M1 EC50” value is “Inactive” and the Emax stood at 2%.

Take `[2H]C1([2H])c2ncccc2C(=O)N1Cc1ccc(-c2ccc(OCC3CCCO3)c3nn(C)cc23)cc1F` (stereo not shown) [Compound 147, 6-(2-fluoro-4-(2-methyl-7-((tetrahydrofuran-2-yl)methoxy)-2H-indazol-4-yl)benzyl)-6,7-dihydro-5H-pyrrolo[3,4-b]pyridin-5-one-7,7-d2]: in experiment [1], the EC50 came to 1100 nM and the Emax was 79%. In addition, in experiment [2], the EC50 is at least 10000 nM and the Emax worked out at 12%.

For the compound `[2H]C1([2H])c2ncccc2C(=O)N1Cc1c(F)cc(-c2ccc3nn(C)cc3c2)cc1Cl` [Compound 167, 6-(2-chloro-6-fluoro-4-(2-methyl-2H-indazol-5-yl)benzyl)-6,7-dihydro-5H-pyrrolo[3,4-b]pyridin-5-one-7,7-d2], in experiment [1], the EC50 was 256 nM and the Emax turned out to be 85%. Further, in experiment [2], the “Agonist Activity Human M1 EC50” value is “Inactive” and the maximum response (Emax) was 2%.

Consider `[2H]C1([2H])c2ncccc2C(=O)N1Cc1c(F)cc(-c2cc(F)c(F)c3nn(C)cc23)cc1F` [Compound 105, 6-(4-(6,7-difluoro-2-methyl-2H-indazol-4-yl)-2,6-difluorobenzyl)-6,7-dihydro-5H-pyrrolo[3,4-b]pyridin-5-one-7,7-d2], for which, in experiment [1], the EC50 came out at 195 nM and the Emax stood at 27%. Further, in experiment [2], the “Agonist Activity Human M1 EC50” value is “Inactive” and the Emax amounted to 2%.

Regarding `[2H]C1([2H])c2ncccc2C(=O)N1Cc1c(F)cc(-c2ccc(OC3CC3)c3nn(C([2H])([2H])[2H])cc23)cc1F` [Compound 183, 6-(4-(7-cyclopropoxy-2-(methyl-d3)-2H-indazol-4-yl)-2,6-difluorobenzyl)-6,7-dihydro-5H-pyrrolo[3,4-b]pyridin-5-one-7,7-d2], the EC50 in experiment [1] is 535 nM; in experiment [2] it was at least 10000 nM. The Emax is 86% in experiment [1] and 13% in experiment [2].
